Measured values as given in patent publication US4880789A, “2'-Substituted-4-deoxy-thiazolo(5,4-c)-rifamycin SV derivatives” (Gruppo Lepetit S.P.A., priority 1985, dated 1989).
≈ marks a conversion by molar mass, not a printed value. Read-outs that look alike come from different tables or passages of the source.

Key:
[1] = system: Staphylococcus aureus ATCC 6538; test: MIC, two-fold dilution microtiter, S. aureus ATCC 6538; assay type: cell-based; conditions: Staphylococcus aureus, ATCC6538; S. aureus ATCC 6538; Iso-Sensitest broth; 18-24 h, 37° C; read-out: MIC
[2] = system: Mycobacterium tuberculosis H37RV ATCC 9360; test: MIC, M. tuberculosis H37RV, Kirschner medium; assay type: cell-based; conditions: Mycobacterium tuberculosis, 168 h, 10% horse serum, 7 days, 37° C, read-out: MIC
Method: (§1) The minimum inhibitory concentration (MIC) of representative compounds of the invention was determined using two-fold dilution method in microtiter system. The media used were: Todd-Hewitt broth (Difco) for steptococci; Iso-Sensitest broth (Oxoid) for staphylococci and gram-negative bacteria. The final inoculum was about 10^4 cfμ/ml. […] For M. tuberculosis H37 RV the inoculum consisted of 0.5-1% of a 7-9 day culture in Dubos medium. The tests were carried out in Kirschner medium supplemented with 10% horse serum. Observations were made after 7-days incubation at 37° C.

[3] = system: Pseudomonas aeruginosa ATCC 10145; test: MIC, two-fold dilution microtiter, P. aeruginosa ATCC 10145; assay type: cell-based; conditions: Pseudomonas aeruginosa, ATCC10145
[4] = system: Escherichia coli SKF 12140; test: MIC, two-fold dilution microtiter, E. coli SKF 12140; assay type: cell-based; conditions: Escherichia coli, SKF12140, Iso-Sensitest broth, 18-24 h, 37° C, read-out: MIC
S. faecalis ATCC 7080 = test: MIC, two-fold dilution microtiter, S. faecalis ATCC 7080; assay type: cell-based; conditions: Enterococcus faecalis, ATCC7080, 18-24 h, 37° C, read-out: MIC
S. aureus TOUR L 1282 = test: MIC, two-fold dilution microtiter, rifampicin resistant S. aureus TOUR L 1282; assay type: cell-based; conditions: Staphylococcus aureus, TOURL1282, rifampicin resistant strain
[5] = system: Proteus vulgaris XI9H ATCC 881; test: MIC, two-fold dilution microtiter, P. vulgaris; assay type: cell-based; conditions: Proteus vulgaris, ATCC881
S. aureus tour L 165 [6] = test: experimental septicemia in mice (S. aureus); assay type: in vivo; conditions: Staphylococcus aureus, once daily for three days, survival on 10th day
Method: The antimicrobial activity of the compounds of the invention is also confirmed in "in vivo" tests. The animals (groups of five mice) were infected by intraperitoneal injection of 16-hour broth culture of S. aureus tour L 165. Inocula were adjusted so that untreated animals died of septicemia within 48 hours. Animals were treated once daily for three days starting immediately after infection. On the 10th day the value for the ED50 in mg/kg/day was calculated by the method of […]-KARBER (Finney, D. J., Statistical method in biological assay, page 524. C. Griffin Ltd., London, 1952), on the basis of the percentage of surviving animals at each dose.

S. aureus TOUR L 165 [7] = test: MIC, two-fold dilution microtiter, S. aureus TOUR L 165; assay type: cell-based, Staphylococcus aureus; conditions: Staphylococcus aureus, TOURL165, S. aureus TOUR L 165, read-out: MIC
[8] = system: Streptococcus pyogenes C203; test: MIC, two-fold dilution microtiter, S. pyogenes C203; assay type: cell-based; conditions: Streptococcus pyogenes, Todd-Hewitt broth, 18-24 h, 37° C, read-out: MIC
Method: as §1

[9] = system: Klebsiella pneumoniae ISM; test: MIC, two-fold dilution microtiter, K. pneumoniae ISM; assay type: cell-based; conditions: Klebsiella pneumoniae
S. pneumoniae UC 41 = test: MIC, two-fold dilution microtiter, S. pneumoniae UC 41; assay type: cell-based; conditions: Streptococcus pneumoniae, UC41, Todd-Hewitt broth, 18-24 h, 37° C, read-out: MIC
[10] = Iso-Sensitest broth, 18-24 h, 37° C
[11] = supplemented with 30% bovine serum

Row | Structure (SMILES) | MIC [1] [µg/mL] | MIC [2] [µg/mL] | MIC [3] [µg/mL] | MIC [4] [µg/mL] | MIC (S. faecalis ATCC 7080) [µg/mL] | MIC (S. aureus TOUR L 1282) [µg/mL] | MIC [5] [µg/mL] | ED50 (S. aureus tour L 165 [6]; TOURL165, 240 h, sc) [mg/kg] | ED50 (S. aureus tour L 165 [6]; TOURL165, po, 240 h, os) [mg/kg] | MIC (S. aureus TOUR L 165 [7]; [10]) [µg/mL] | MIC (S. aureus TOUR L 165 [7]; [11]) [µg/mL] | MIC [8] [µg/mL] | MIC [9] [µg/mL] | MIC (S. pneumoniae UC 41) [µg/mL] | MIC ([3]; P. aeruginosa ATCC 10145, Iso-Sensitest broth, 18-24 h, 37° C, read-out: MIC) [µg/mL] | MIC ([5]; P. vulgaris XI9H ATCC 881, Iso-Sensitest broth, 18-24 h, 37° C, read-out: MIC) [µg/mL]
1 | COC1C=COC2(C)Oc3c(C)c(O)c4c(O)c(c5sc(N6CCN(c7ccc(Cl)cc7)CC6)nc5c4c3C2=O)NC(=O)C(C)=CC=CC(C)C(O)C(C)C(O)C(C)C(OC(C)=O)C1C (stereo not shown) [Example 3d, 2'-[4"(4'"-chlorophenyl)-1-piperazinyl]rifamycin P] | 0.064 (≈ 0.0686 µM) | 1 (≈ 1.07 µM) | 128 (≈ 137 µM) | 1 (≈ 1.07 µM) | 2 (≈ 2.14 µM) | > 128 | > 128 | 3.3 | 3.3 | 0.064 (≈ 0.0686 µM) | 0.25 (≈ 0.268 µM) | 0.064 (≈ 0.0686 µM) | > 128 | 0.125 (≈ 0.134 µM) | – | –
2 | COc1ccc(N2CCN(c3nc4c(s3)c3c(O)c5c(O)c(C)c6c(c54)C(=O)C(C)(OC=CC(OC)C(C)C(OC(C)=O)C(C)C(O)C(C)C(O)C(C)C=CC=C(C)C(=O)N3)O6)CC2)cc1 (stereo not shown) [Example 3e, 2'-[4"(4'"-methoxyphenyl)-1-piperazinyl]rifamycin P] | 0.064 (≈ 0.0689 µM) | 0.25 (≈ 0.269 µM) | – | 8 (≈ 8.61 µM) | 4 (≈ 4.31 µM) | > 128 | – | 0.63 | 1.9 | 0.064 (≈ 0.0689 µM) | 0.5 (≈ 0.538 µM) | 0.125 (≈ 0.135 µM) | > 128 | 0.064 (≈ 0.0689 µM) | 8 (≈ 8.61 µM) | 64 (≈ 68.9 µM)
